From patent US20100138935A1, “Detection of cellular stress” (priority 2004, published 2010)

What was measured:
HOZ mice = assay: Plasma ALT as a marker of hepatotoxicity in HOZ mice; format: in vivo, mouse
Experimental: Terminal blood samples were taken by cardiac puncture into lithium/heparin-coated tubes for preparation of plasma. Tissues, as defined in each protocol, were routinely dissected as follows:
Following removal into tubes suitable for plasma preparation, venous blood samples were mixed on a roller for 10 minutes then cooled on ice. Red blood cells were removed by centrifugation at 2,000 rpm for 10 minutes at 8-10° C. The supernatant (plasma) was transferred to a second tube and stored at −70° C. until required for analysis.
Plasma samples were analysed for appropriate analytes on a Roche autoanalyser (Cobas Integra 400) according to the manufacturer's instructions. The routine markers measured included: (for liver damage) plasma alanine aminotransferase (ALT), aspartate aminotransferase (AST) and alkaline phosphatase (ALP) and (for kidney damage) plasma creatinine and blood urea nitrogen (BUN).
Two plasma enzyme markers, ALT and AST, were used as markers of hepatotoxicity in HOZ mice treated with cadmium chloride or sodium arsenite. The results of this analysis for HOZ mice treated with 10 mg/kg cadmium chloride are shown in Table 1 and for HOZ mice treated with 2-8 mg/kg cadmium chloride or 13 mg/kg sodium arsenite in Tables 2 and 3.

[1] = tested on: HO-1-LacZ (HOZ) transgene; assay: LacZ transgene expression in HO-1-LacZ (HOZ) reporter mice; format: in vivo, mouse
Experimental: Each test compound was dissolved in the appropriate vehicle solution and administered by intraperitoneal injection (i.p.) at a dose volume of 10 ml/kg. Wherever possible, both naive (untreated) and vehicle-treated controls were used. If a test item whose toxicity in the mouse is poorly characterised was to be used, a dose-ranging experiment was conducted prior to the main experiment. The test item was administered to a single mouse which was monitored for any adverse effects 6-8 hours and 24 hours later. If the single dose ranging mouse tolerated the treatment, the remaining mice were administered the test item according to the protocol.
Two slices of tissue (˜2 mm thickness) were removed for histochemical analysis of LacZ expression according to methods described below.
Tissues were washed with PBS and prefixed in 0.2% glutaraldehyde in PBS containing 0.1M MgCl2 and 5 mM EDTA, pH 7.3, for 4 hours at 4° C. on a shaker. After fixation, the tissues were transferred to 20% Sucrose solution and dehydrated overnight at 4° C. The next day they were embedded in cryo-M-bed medium on cork discs and lowered slowly into liquid nitrogen then transferred to −80° C. until sections were required.
Cryostat sample and chamber temperatures were set to −30° C. The sample to be sectioned was placed in the cryostat one hour prior to sectioning to allow equilibration at the appropriate temperature. Frozen sections (10 μm) were cut and placed on aminopropyltriethoxysilane (APES) coated slides.
Prior to staining, sections were incubated in 0.2% glutaraldehyde (as above) for 10 minutes at room temperature then washed twice (5 min each) in PBS containing 2 mM MgCl2, 0.01% sodium deoxycholate and 0.02% % Nonidet-P40. Sections were then […] the same wash solution containing 1 mg/ml X-gal, 5 mM potassium ferrocyanide and 5 mM potassium ferricyanide overnight at 37° C. then washed twice in PBS for 5 min, allowed to air dry and mounted in aqueous mounting medium (Hydromount). Slides were evaluated and photographed. • Frozen Method 2
Tissues were excised, immediately placed into chilled 4% paraformaldehyde containing 0.1% glutaraldehyde and 2 mM MgCl2 in PBS, and fixed in the above solution for 3 hours at 2-8° C. with gentle shaking. Fixed tissues were washed at 2-8° C. for 3×5 minutes with chilled PBS containing 2 mM MgCl2 and dehydrated overnight at 2-8° C. in PBS containing 2 mM MgCl2 and 30% (w/v) sucrose overnight The next day dehydrated tissues were embedded in OCT embedding medium using an isopentane/dry ice bath. Embedded tissues were stored at −70° C. until they could be cryosectioned.
Frozen sections were washed three times for 5 minutes in PBS containing 2 mM MgCl2 at 2-8° C. then 3×30 min in detergent wash (PBS containing 2 mM MgCl2 0.01% Nonidet P40 and 0.1% Sodium Deoxycholate) at 2-8° C. They were then stained overnight in PBS containing 2 mM MgCl2, 0.02% Nonidet P40, 0.1% Sodium Deoxycholate, 5 mM Potassium ferrocyanide, 5 mM Potassium ferricyanide, and 0.1% X-gal at 37° C. The next day, the slides were washed three times for 5 minutes in PBS containing 2 mM MgCl2 followed by three times for 5 minutes in PBS at room temperature. They were equilibrated with 100% ethanol (5 min) and counterstained with Eosin for 1 min at room temperature. Following dehydration and mounting they were evaluated and photographed. • Whole Mount Method
Tissue specimens that had been prefixed in fresh 4% paraformaldehyde were stained immediately using the procedure for “Whole Mount X-Gal Histochemistry of Transgenic Animal Tissues” (see http://www.rodentia.com/wmc/docs/lacZ bible.html), summarised below) was followed, and the post-fixed tissues were transferred to 70% (v/v) ethanol.
Following fixation for one hour in 4% paraformaldehyde, tissues were rinsed three times, for thirty minutes each, with rinse buffer (100 mM sodium phosphate (pH 7.3), 2 mM MgCl2, 0.01% sodium deoxycholate, 0.02% NP-40) at room temperature. […]

[Cl][Cd][Cl] [Cadmium Chloride, cadmium chloride]
ALT (HOZ mice; HOZ mouse, 10 mg/kg i.p., 24 hours): 1834.8 U/L
Plasma ALT (HOZ mice; female, 1 mg/kg, 8 hours): 33.3 u/L
Plasma ALT (HOZ mice; female, 1 mg/kg, 24 hours): 28.2 u/L
Plasma ALT (HOZ mice; female, 2 mg/kg, 8 hours): 22.8 u/L
Plasma ALT (HOZ mice; female, 2 mg/kg, 24 hours): 26.1 u/L
Plasma ALT (HOZ mice; female, 4 mg/kg, 8 hours): 55.6 u/L
Plasma ALT (HOZ mice; female, 4 mg/kg, 24 hours): 23.7 u/L
increase in plasma ALT (HOZ mice; female, 4 mg/kg, after 8 hours): 2.4 fold
increase in ALT (HOZ mice; female, 4 mg/kg, second statement, printed as after 8 hours): ≤ 2 fold
Plasma ALT (HOZ mice; female, 8 mg/kg, 8 hours): 3930.6 u/L
Plasma ALT (HOZ mice; female, 8 mg/kg, 24 hours): 7010.4 u/L
increase in plasma ALT (HOZ mice; female, 8 mg/kg, after 8 hours): 170 fold
increase in plasma ALT (HOZ mice; female, 8 mg/kg, after 24 hours): 275 fold
Plasma ALT (HOZ mice; male, 1 mg/kg, 8 hours): 70.3 u/L
Plasma ALT (HOZ mice; male, 1 mg/kg, 24 hours): 33.1 u/L
Plasma ALT (HOZ mice; male, 2 mg/kg, 8 hours): 21.7 u/L
Plasma ALT (HOZ mice; male, 2 mg/kg, 24 hours): 19.4 u/L
Plasma ALT (HOZ mice; male, 4 mg/kg, 8 hours): 50.4 u/L
Plasma ALT (HOZ mice; male, 4 mg/kg, 24 hours): 74.7 u/L
Plasma ALT (HOZ mice; male, 8 mg/kg, 8 hours): 50.1 u/L
Plasma ALT (HOZ mice; male, 8 mg/kg, 24 hours): 306.3 u/L
increase in ALT (HOZ mice; male, 8 mg/kg, 24 hours after treatment): 7.9 fold
increase in ALT and AST (HOZ mice; male, all other doses and time points): ≤ 2 fold
expression of the HOZ gene in kidney ([1]; 8 mg/kg, 8 hours after dosing): detectable expression
LacZ expression in brain ([1]; HOZ mice, with or without cadmium chloride treatment): no evidence of LacZ expression
LacZ staining in liver ([1]; HOZ mouse, 10 mg/kg i.p. in saline, 24 hours after dosing): intense blue staining
LacZ staining in kidney (proximal convoluted tubules) ([1]; HOZ mouse, 10 mg/kg i.p. in saline, 24 hours, versus naive and saline controls): frequency of stained PCTs was much higher
HOZ gene expression in liver ([1]; either sex, 8 mg/kg i.p., 24 hours): clearly apparent
LacZ staining in liver ([1]; female, 4 mg/kg i.p., 8 hours): weak LacZ staining
HOZ gene expression in liver ([1]; female, 2-8 mg/kg i.p., 8 hours): no consistent evidence of HOZ expression
HOZ gene expression in liver ([1]; female, lower doses (2, 4 mg/kg) i.p., 24 hours): none was evident
HOZ gene expression in liver ([1]; male, 8 mg/kg i.p., 8 hours): High levels of HOZ gene expression
HOZ gene expression in liver ([1]; male, lower doses (2, 4 mg/kg) i.p., 8 hours): lower levels of expression
HOZ gene expression in liver ([1]; male, lower doses (2, 4 mg/kg) i.p., 24 hours): some HOZ expression was also apparent
